Reference: PMC2362735, “New semisynthetic vinca alkaloids: chemical, biochemical and cellular studies” (British Journal of Cancer, 1999)
Where two headings read alike, the source gives them in different places.

Assays:
[1] = molecular target: Phosphofructokinase [ATP: D-fructose 6-phosphate 1-phospho-transferase, EC 2.7.1.11] from rabbit skeletal muscle (rabbit) (UniProt P00511)
[2] = tested on: Mouse Ehrlich ascites tumour cells; assay: In vivo anti-tumour effect on Ehrlich ascites carcinoma, single i.p. dose 4 days after transplantation
Text: (§1) The numerous antimitotic drugs already developed and therapeu- tically used for a large number of pathologies belong to different classes based on their chemical structure and other distinctive features. Antimitotic drugs usually target the tubulin/microtubule network of the cytoskeleton that is formed by assembly of cyto- plasmic tubulin dimers. The stability of the different microtubular structures varies considerably; some of their functions depend on their lability. The lability is augmented by the extreme sensitivity to various drugs. Several synthetic and natural compounds interact specifically with tubulin and/or microtubule, fundamentally destroying its dynamic character and leading to cell death. […] Because of their extensive clinical use, it is important to synthesize additional agents having at least the same biological activity. […] Nevertheless, it is unclear yet how the anti-calmodulin activity of these drugs is related to their desired and undesired pharmacological effects. […] The synthesis of the KAR derivatives are presented. […] Taxol, GTP and trifluoperazine were purchased from Sigma. All organic reagents for synthesis of the new compounds were obtained from Aldrich and were of the highest grade. All other chemicals were reagent grade commercial preparations. […] Tubulin was stored in 1 M sucrose, 10 mM sodium phosphate buffer, 0.5 mM magnesium chloride and 0.1 mM GTP, pH 7.0, at -80C and dialysed against the appropriate buffer before use. […] PFK, aldolase and glycerol-3-phosphate dehydrogenase- triosephosphate isomerase purified from rabbit skeletal muscle were purchased in ammonium sulphate suspensions from Sigma or Boehringer. The enzyme suspensions were centrifuged at 10 000g for 5 min. The pellets were suspended in the appropriate buffer, then the enzymes were gel filtered or dialysed in the same buffer to remove ammonium sulphate. […] (Figure 1B; R1 , CH3; R2 , CH2 CH2 Cl). […] After 2 h incubation at room temperature, 200 ml dried toluene was added to the reaction mixture. […] The mixture was stirred for 30 min. After separation of the organic phase, it was washed with water (3 x 30 ml) and dried with potassium sulphate and evaporated on a water bath of 35-40C at 20-27 hPa. The resulting material was chromatographed on silica gel (500 g, bead size of 0.040- 0.063 mm) column (30 mm x 500 mm) using ethyl acetate/ethanol (9:1) mixture as eluent. […] The mixture was kept for 4 h at room temperature and then evaporated on a water bath at 40C under a vacuum of 80 hPa to a final volume of 5-6 ml. […] (Figure 1B, R1 , CHO; R2 , CH2 CH2 Cl). […] Synthesis of KAR-4 [3-allyl-2,4-dioxo-3,5-spiro-oxazolidino- 4-deacetoxy-vinblastine] (Figure 1B; R1 , CH3; R2 , CH2 CH=CH2 ). […] NMR measurements were carried out on a Varian Unity plus-500 instrument (500 MHz for 1H and 125 MHz for 13C) in DMSO. Chemical shifts were determined relative to dTMS = 0.00 p.p.m. 1H and 13C signal assignments were verified by a concerted use of two-dimensional 1H-1H and 1H-13C shift correlation methods (DQFCOSY, HSQC, HMBC) and NOESY experiments. The gradient-enhanced DQFCOSY, HSQC, HMBC and NOESY experiments were recorded by using the standard spectrometer software package. A mixing time of tmix = 0.5 s was used for the NOESY experiments.

calmodulin = molecular target: T1, calmodulin (Bos taurus, UniProt P62157); assay: Anti-calmodulin activity assay: calmodulin-induced PFK inactivation; assay type: biochemical, bovine; conditions: drug 20 M; for Effect on calmodulin induced PFK inactivation: Activity (U mg-1): PFK 1.2 M protomers, calmodulin 3 M, 60 min, without calmodulin 66.6 U mg-1, with calmodulin 8.0 U mg-1; for Anti-calmodulin activity: Efficiency (%): calculated from the activity data (100% = PFK without calmodulin, 0% = PFK with calmodulin)
T1 construct: Calmodulin from bovine brain was purified to homogeneity using Phenyl-Sepharose (Pharmacia) chromatography; from tissue; host or cells: bovine brain
Text: The numerous antimitotic drugs already developed and therapeu- tically used for a large number of pathologies belong to different classes based on their chemical structure and other distinctive features. Antimitotic drugs usually target the tubulin/microtubule network of the cytoskeleton that is formed by assembly of cyto- plasmic tubulin dimers. The stability of the different microtubular structures varies considerably; some of their functions depend on their lability. The lability is augmented by the extreme sensitivity to various drugs. Several synthetic and natural compounds interact specifically with tubulin and/or microtubule, fundamentally destroying its dynamic character and leading to cell death. […] Because of their extensive clinical use, it is important to synthesize additional agents having at least the same biological activity. […] Nevertheless, it is unclear yet how the anti-calmodulin activity of these drugs is related to their desired and undesired pharmacological effects. […] The synthesis of the KAR derivatives are presented. […] Taxol, GTP and trifluoperazine were purchased from Sigma. All organic reagents for synthesis of the new compounds were obtained from Aldrich and were of the highest grade. All other chemicals were reagent grade commercial preparations. […] Tubulin was stored in 1 M sucrose, 10 mM sodium phosphate buffer, 0.5 mM magnesium chloride and 0.1 mM GTP, pH 7.0, at -80C and dialysed against the appropriate buffer before use. […] PFK, aldolase and glycerol-3-phosphate dehydrogenase- triosephosphate isomerase purified from rabbit skeletal muscle were purchased in ammonium sulphate suspensions from Sigma or Boehringer. The enzyme suspensions were centrifuged at 10 000g for 5 min. The pellets were suspended in the appropriate buffer, then the enzymes were gel filtered or dialysed in the same buffer to remove ammonium sulphate. […] (Figure 1B; R1 , CH3; R2 , CH2 CH2 Cl). […] After 2 h incubation at room temperature, 200 ml dried toluene was added to the reaction mixture. […] The mixture was stirred for 30 min. After separation of the organic phase, it was washed with water (3 x 30 ml) and dried with potassium sulphate and evaporated on a water bath of 35-40C at 20-27 hPa. The resulting material was chromatographed on silica gel (500 g, bead size of 0.040- 0.063 mm) column (30 mm x 500 mm) using ethyl acetate/ethanol (9:1) mixture as eluent. […] The mixture was kept for 4 h at room temperature and then evaporated on a water bath at 40C under a vacuum of 80 hPa to a final volume of 5-6 ml. […] (Figure 1B, R1 , CHO; R2 , CH2 CH2 Cl). […] Synthesis of KAR-4 [3-allyl-2,4-dioxo-3,5-spiro-oxazolidino- 4-deacetoxy-vinblastine] (Figure 1B; R1 , CH3; R2 , CH2 CH=CH2 ). […] NMR measurements were carried out on a Varian Unity plus-500 instrument (500 MHz for 1H and 125 MHz for 13C) in DMSO. Chemical shifts were determined relative to dTMS = 0.00 p.p.m. 1H and 13C signal assignments were verified by a concerted use of two-dimensional 1H-1H and 1H-13C shift correlation methods (DQFCOSY, HSQC, HMBC) and NOESY experiments. The gradient-enhanced DQFCOSY, HSQC, HMBC and NOESY experiments were recorded by using the standard spectrometer software package. A mixing time of tmix = 0.5 s was used for the NOESY experiments. […] Mass spectrum was recorded on a Kratos MS 80 instrument using FAB.

[3] = tested on: Mouse leukaemia P388 cells; assay: In vivo anti-tumour effect on P388 mouse leukaemia, single i.p. dose; conditions: for Dose (mg kg-1) giving the maximal effect: P388, single doses i.p.; for Maximal effect T/C (%): P388, single doses i.p. 24 h after transplantation, median survival treated/control x 100, six animals per group
Text: as §1

tubulin = assay: Taxol-induced tubulin polymerization, turbidity at 350 nm; assay type: biochemical, calf; conditions: taxol-induced assembly, MES buffer pH 6.8, 37C; average of three independent measurements; read-out: Anti-tubulin effect, turbidity at 350 nm, IC50
Text: as §1

[4] = tested on: Human neuroblastoma cell line (SH-SY5Y); assay: Microculture tetrazolium assay (MTA), cytotoxicity
Text: as §1

[5] = tested on: Mouse leukaemia P388 cells; design: method as in Orosz et al (1997a); conditions: P388, single doses i.p.; data published also in ref Orosz et al (1997a); cited from earlier work
[6] = Table 2A, 40 mg kg-1 single dose i.p.
[7] = Table 2A, 40 mg kg-1 single dose i.p., sacrifice 8 days after implantation, control 5.33 ml
[8] = read-out: Cytotoxicity MTA IC50, 4-day treatment, MTT
[9] = Table 2B, 2 mg kg-1 single dose i.p.
[10] = Table 2B, 5 mg kg-1 single dose i.p.
[11] = Table 2B, 10 mg kg-1 single dose i.p.

Phosphofructokinase [ATP: D-fructose 6-phosphate 1-phospho-transferase, EC 2.7.1.11] from rabbit skeletal muscle (rabbit), sequence (P00511 whole entry): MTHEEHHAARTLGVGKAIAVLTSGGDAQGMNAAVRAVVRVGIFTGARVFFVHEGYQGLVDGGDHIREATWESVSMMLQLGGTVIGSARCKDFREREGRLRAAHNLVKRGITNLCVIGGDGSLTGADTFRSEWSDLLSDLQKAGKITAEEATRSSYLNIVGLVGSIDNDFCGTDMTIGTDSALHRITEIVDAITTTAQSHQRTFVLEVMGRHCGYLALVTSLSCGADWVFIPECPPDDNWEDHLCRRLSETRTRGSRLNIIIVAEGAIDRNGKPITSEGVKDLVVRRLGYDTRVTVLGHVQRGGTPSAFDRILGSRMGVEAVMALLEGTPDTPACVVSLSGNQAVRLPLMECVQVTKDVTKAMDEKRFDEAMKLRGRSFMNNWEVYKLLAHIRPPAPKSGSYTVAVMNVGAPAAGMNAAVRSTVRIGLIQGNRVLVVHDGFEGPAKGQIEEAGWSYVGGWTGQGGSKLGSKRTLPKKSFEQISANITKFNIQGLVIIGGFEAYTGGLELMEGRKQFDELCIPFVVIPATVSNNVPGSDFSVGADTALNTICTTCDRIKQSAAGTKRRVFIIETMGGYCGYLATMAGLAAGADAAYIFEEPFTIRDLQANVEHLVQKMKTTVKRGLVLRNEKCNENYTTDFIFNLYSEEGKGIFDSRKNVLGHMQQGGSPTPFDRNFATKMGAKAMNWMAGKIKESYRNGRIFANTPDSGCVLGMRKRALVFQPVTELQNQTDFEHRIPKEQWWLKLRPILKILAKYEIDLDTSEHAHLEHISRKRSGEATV

Compound: Calmodulin from bovine brain (from UniProt P62157 1-149) (natural protein)
- PFK activity after 60 min incubation with calmodulin and KAR-2 (calmodulin induced PFK inactivation) [1]: 11.1 U mg-1
- PFK activity after 60 min incubation with calmodulin and KAR-3 (calmodulin induced PFK inactivation) [1]: 34.4 U mg-1
- PFK activity after 60 min incubation with calmodulin and KAR-4 (calmodulin induced PFK inactivation) [1]: 10.9 U mg-1
- PFK activity after 60 min incubation with calmodulin and trifluoperazine (calmodulin induced PFK inactivation) [1]: 46.1 U mg-1
- efficiency of KAR-2 in suspending the calmodulin induced PFK inactivation [1]: 5%
- efficiency of KAR-3 in suspending the calmodulin induced PFK inactivation [1]: 45%
- efficiency of KAR-4 in suspending the calmodulin induced PFK inactivation [1]: 5%
- efficiency of trifluoperazine in suspending the calmodulin induced PFK inactivation [1]: 65%
- residual PFK activity after 60 min incubation with calmodulin, no drug (66.6 U mg-1 without calmodulin) [1]: 8 U mg-1

Compound: CCC1(O)CC2CN(CCc3c([nH]c4ccccc34)C(C(=O)OC)(c3cc4c(cc3OC)N(C=O)C3C5(CC6(CC)C=CCN7CCC43C76)OC(=O)N(CCCl)C5=O)C2)C1 (centres unmarked) [KAR-3, 3-(-chloroethyl)-2,4-dioxo-3,5-spiro-oxazolidino-4-deacetoxy-vincristine]
- Cells ml-1 (per cent of control) [2, 6]: 57 per cent of control
- Total cells (per cent of control) [2, 6]: 32 per cent of control
- Volume of tumour per mouse [2, 7]: 3.00 mL
- Effect on calmodulin induced PFK inactivation: Activity (U mg-1) (calmodulin): 34.4 U mg-1
- anti-calmodulin activity in the PFK assay (in words) (calmodulin): significant anti-calmodulin potency
- reduction of the calmodulin-mediated inactivation of PFK (calmodulin): about 50%
- Anti-calmodulin activity: Efficiency (%) (calmodulin): 45%
- Dose (mg kg-1) giving the maximal effect [3]: 20 mg/kg
- Maximal effect T/C (%) [3]: 187%
- IC50 (tubulin): 136 nM
- IC50 [4, 8]: 3.1e-07 M

Compound: CC[C@]1(O)C[C@H]2CN(CCc3c([nH]c4ccccc34)[C@@](C(=O)OC)(c3cc4c(cc3OC)N(C=O)[C@H]3[C@@](O)(C(=O)OC)[C@H](OC(C)=O)[C@]5(CC)C=CCN6CC[C@]43[C@@H]65)C2)C1 [Vincristine, vincristine, reference compound]
- mortality of treated animals ([2]; 15 mg kg-1 (highest dose) single dose i.p., three mice per group): death of two of the three treated animals
- Total cells (per cent of control) ([2]; Table 2B, 1 mg kg-1 single dose i.p.): 57 per cent of control
- Volume of tumour per mouse ([2]; Table 2B, 1 mg kg-1 single dose i.p., control 2.67 ml): 2.00 mL
- Cells ml-1 (per cent of control) [2, 9]: 106 per cent of control
- Total cells (per cent of control) [2, 9]: 60 per cent of control
- Volume of tumour per mouse ([2]; Table 2B, 2 mg kg-1 single dose i.p., control 2.67 ml): 1.50 mL
- Cells ml-1 (per cent of control) [2, 10]: 225 per cent of control
- Total cells (per cent of control) [2, 10]: 54 per cent of control
- Volume of tumour per mouse ([2]; Table 2B, 5 mg kg-1 single dose i.p., control 2.67 ml): 0.64 mL
- Cells ml-1 (per cent of control) [2, 11]: 224 per cent of control
- Total cells (per cent of control) [2, 11]: 45 per cent of control
- Volume of tumour per mouse ([2]; Table 2B, 10 mg kg-1 single dose i.p., control 2.67 ml): 0.53 mL
- maximum dose that did not result in the death of the animals ([2]; single dose i.p., Ehrlich ascites mice): 10 mg/kg
- Dose (mg kg-1) giving the maximal effect [5]: 1 mg/kg
- IC50 (tubulin): 290 nM
- IC50 ([4]; Homo sapiens, 96 h, read-out: Cytotoxicity MTA IC50): 1.3e-08 M
- IC50 ([4]; Homo sapiens, 96 h, read-out: Cytotoxicity MTA IC50 (M)): 1.3e-08 M

Compound: C=CCN1C(=O)O[C@@]2(C[C@]3(CC)C=CCN4CC[C@@]5(c6cc([C@@]7(C(=O)OC)C[C@@H]8CN(CCc9c7[nH]c7ccccc97)C[C@](O)(CC)C8)c(OC)cc6N(C)[C@H]52)[C@@H]43)C1=O [KAR-4, 3-allyl-2,4-dioxo-3,5-spiro-oxazolidino-4-deacetoxy-vinblastine]
- Cells ml-1 (per cent of control) [2, 6]: 90 per cent of control
- Total cells (per cent of control) [2, 6]: 57 per cent of control
- Volume of tumour per mouse [2, 7]: 3.33 mL
- Effect on calmodulin induced PFK inactivation: Activity (U mg-1) (calmodulin): 10.9 U mg-1
- anti-calmodulin activity in the PFK assay (in words) (calmodulin): does not display anti-calmodulin activity
- Anti-calmodulin activity: Efficiency (%) (calmodulin): 5%
- Dose (mg kg-1) giving the maximal effect [3]: 40 mg/kg
- Maximal effect T/C (%) [3]: 214%
- IC50 (tubulin): 185 nM
- IC50 [4, 8]: 3.5e-07 M
